Measurements as given in a melting point compilation (Tetko et al.; mined from patent text by program, amines drawn as free bases though some values may be those of a salt).

Compared with `COC1=CCC2=C(CC[C@@H]3[C@@H]2CC[C@@]2(C)[C@H]3CCC23CC(O)CO3)C1` (stereo not given in full), `COc1ccc2c(c1)C13CCN(C)C(C2)C1(O)CCOC3` (single isomer, unassigned; (+)) is lower in melting point: 152 to 155 °C for the first, 108 to 110 °C for the second.

Compared with `O=C1CCC(=O)N1SCc1ccc([N+](=O)[O-])cc1`, `O=[N+]([O-])c1cnccc1NCc1ccccc1F` is lower in melting point: 146 to 148 °C for the first, 108 to 109 °C for the second.

Compared with `CCOC(=O)OC1=C(c2cc(C)ccc2C)C(=O)NC1CC1CCS(=NC#N)CC1` (stereo not given), `CCOC(=O)c1c(N2CCN(C)CC2)c2cc(C)ccc2n(-c2ccccc2)c1=O` is higher in melting point: 103 to 105 °C for the first, 188 °C for the second.

First: Cc1ccc(S(=O)(=O)N(c2ccc(Cl)cc2C#N)C(C)C)cc1
Second: COC(=O)c1ccc(CN(C(C)C)S(=O)(=O)c2ccc(F)cc2)cc1
The melting point of the first is higher: 130 °C for the first, 118 to 120 °C for the second.

First: CCOC(=O)c1occ(-c2ccccc2)c(=O)c1Br
Second: S=c1sscc1-c1ccccc1
The melting point of the first is higher: 134 °C for the first, 122 to 124 °C for the second.

First: CCCCCCCOC(=O)CON=c1c2nccc3cccc(c32)n2cccc12
Second: Cc1nn(-c2ccc(C(F)(F)F)cn2)cc1COc1ccc(OCC(=O)O)cc1
The melting point of the first is lower: 98 °C for the first, 138 to 139 °C for the second.

First: Cc1ccc(C(=O)N(C)C)cc1-c1nc(N(C)CCCN(C)C)nc2c1CNC(=O)N2c1c(F)cccc1F
Second: COc1ccc2c(c1)c(C=C1SC(=N)NC1=O)c(C)n2C(=O)c1ccc(Cl)cc1
The melting point of the first is lower: 114 to 118 °C for the first, 269 to 270 °C for the second.

Compared with `NS(=O)(=O)c1cc(C=O)cs1`, `COc1ccc(S(=O)(=O)NC=NCCSCc2csc(NC=NN)n2)cc1` is lower in melting point: 146 to 149 °C for the first, 68 to 76 °C for the second.

First: O=C(O)CCCCCCCCCCCCC(=O)ON1C(=O)CCC1=O
Second: CON(CCCCn1c(C)nc2c(N)nc3ccccc3c21)S(C)(=O)=O
The melting point of the first is lower: 116 to 118 °C for the first, 201 to 203 °C for the second.

First: S=c1[nH]ccn1CCCc1cccs1
Second: Cn1c(=O)n(Cc2ccc(F)cc2)c(=O)c2cc(C#CCc3ccccc3)ccc21
The melting point of the first is lower: 94 to 96.5 °C for the first, 160 °C for the second.

Compared with `COc1ccc(Cn2cnc(N)c3nc(C(C)C)nc2-3)cc1OC1CCCC1`, `CC(C)(Cn1c(CO)nc2c(N)nc3ccccc3c21)NC(=O)C1CCCCC1` is higher in melting point: 190 to 193 °C for the first, 248 to 250 °C for the second.

First: CC(=O)c1ccc2c(c1)CCCS2
Second: O=C(O)c1ccc2c(COc3cccnc3)csc2c1
The melting point of the first is lower: 49.5 to 50.5 °C for the first, 248 to 250 °C for the second.

First: OC[C@@H](O)[C@@H](O)[C@H](O)[C@@H](O)CNC1CCCCC1
Second: O=C(NCc1ccc(F)cc1)c1ccnc(N2CCN(Cc3ccccn3)C2=O)c1
The melting point of the first is higher: 144 to 146 °C for the first, 141 to 142 °C for the second.

First: COC(=O)c1nccnc1N(C)c1ccc(Cl)cc1[N+](=O)[O-]
Second: O=c1nc(-c2ccccn2)sc2ccc(Cl)cc12
The melting point of the first is lower: 111 to 112 °C for the first, 269 to 270 °C for the second.

Compared with `Cc1ccn(-c2ccc(C(=O)N3Cc4cccnc4Nc4ccccc43)c(C(F)(F)F)c2)n1`, `COc1ccc(C(=O)Nc2nc(=O)c3cnn4c3n2CC=C4c2cccc(C(F)(F)F)c2)cc1` is higher in melting point: 183 to 185 °C for the first, 271 to 273 °C for the second.

Compared with `c1ccc(-c2ccc(OC3CN(C(c4ccccc4)c4ccccc4)C3)cc2)cc1`, `Cn1cc(C2=C(c3c4n(c5ccccc35)CC(O)CC4)C(=O)NC2=O)c2ccccc21` (stereo not given) is higher in melting point: 141 to 142 °C for the first, 252 to 255 °C for the second.

Compared with `CSc1cc2c(N3CCc4ccc(Cl)cc43)ncnc2cc1Cl`, `CC1(C)C(=O)Nc2ccc(-c3cc(F)cc(Cl)c3)cc21` is higher in melting point: 167 to 168 °C for the first, 206 to 207 °C for the second.

Compared with `CC(C)=NOCc1nc2c(N)nc3cccnc3c2n1CC(C)C`, `Cc1cccc(-c2[nH]c(C(C)C)nc2-c2ccc(F)c(-c3cc[nH]c3)c2)n1` is lower in melting point: 173 to 175 °C for the first, 106 to 110 °C for the second.

First: FC(F)(F)c1cc(Cl)c(-n2nccc2Cl)c(Cl)c1
Second: CC(=O)Nc1n[nH]c(C(C)(C)C)c1Br
The melting point of the first is lower: 70 to 72 °C for the first, 234 to 235 °C for the second.

First: Cc1ccc(C(C#N)C(=O)C(=O)C(C#N)c2ccc(C)cc2)cc1 (stereo not given)
Second: CC(C)CCNC(Nc1ccccc1)=C(C#N)C#N
The melting point of the first is higher: 246 to 250 °C for the first, 183 to 185 °C for the second.
